Source: PubChem BioAssay (NCI)
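Method: 48-hour compound exposure of cells in 96-well plates, five concentrations, linear interpolation of endpoints. Here, GI50 denotes the concentration required for 50% inhibition of growth. TGI denotes the concentration required for complete inhibition of growth.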

What was measured:
Assay in all cases: inhibition of tumour cell growth, NCI panel, 48 h
[1] = test system: A549 NSCLC
[2] = test system: U251 CNS
[3] = test system: MDA-MB-231 breast
[4] = test system: SK-MEL-28 melanoma
[5] = test system: SN12C renal
[6] = test system: SNB-19 CNS
[7] = test system: HCT-15 colon
[8] = test system: OVCAR-3 ovarian
[9] = test system: LXFL 529 NSCLC

SMILES | GI50 [1] | TGI [1] | GI50 [2] | TGI [2] | GI50 [3] | TGI [3] | GI50 [4] | TGI [4] | GI50 [5] | TGI [5] | GI50 [6] | TGI [6] | GI50 [7] | TGI [7] | GI50 [8] | TGI [8] | GI50 [9] | TGI [9]
CN(C)c1ccc(N2Cc3ccccc3OC3=C2C(=O)c2c(O)ccc(O)c2C3=O)cn1 | 2320 nM | 6030 nM | 311 nM | 1200 nM | 234 nM | 745 nM | 275 nM | 762 nM | 261 nM | 1030 nM | 563 nM | 2240 nM | 178 nM | 502 nM | 233 nM | 695 nM |  | 
CC(C)(C)NC(C1=CC(C)(C)c2ccccc2C1=O)c1ccccc1 (centres undefined) | 2160 nM | 5250 nM | 1540 nM | 2870 nM | 1580 nM | 3450 nM | 1600 nM | 2950 nM | 1610 nM | 3570 nM | 3360 nM | 14200 nM | 1290 nM | 2680 nM | 1310 nM | 2580 nM |  | 
CC(=O)[CH-]C(=O)c1ccccc1.CC(=O)[CH-]C(=O)c1ccccc1.CC[O-].CC[O-].[Zr+4] | > 100000 nM | > 100000 nM | > 100000 nM | > 100000 nM |  |  | > 100000 nM | > 100000 nM | > 100000 nM | > 100000 nM | > 100000 nM | > 100000 nM | > 100000 nM | > 100000 nM | > 100000 nM | > 100000 nM | > 100000 nM | > 100000 nM
CC[C@H](C)[C@H]1NC(=O)[C@@H](N[C@](C)(O)[C@@H](N)CC(C)C)[C@@H](C)OC(=O)[C@H](Cc2ccc(OC)cc2)N(C)C(=O)[C@@H]2CCCN2C(=O)[C@H](CC(C)C)NC(=O)[C@@H](C)C(=O)[C@H](C(C)C)OC(=O)C[C@@H]1O | 11.5 nM | 470 nM | 11.9 nM | 188 nM | 26.3 nM | 233 nM | 11.7 nM | 95.4 nM | 11.5 nM | 316 nM | 13.7 nM | 461 nM | 217 nM | 22900 nM | 17.8 nM | 232 nM |  | 
Cn1cncc1[C@@](N)(c1ccc(Cl)cc1)c1ccc2c(c1)c(-c1cccc(Cl)c1)cc(=O)n2C | 2050 nM | 10200 nM | 1400 nM | 7490 nM | 2520 nM | 14900 nM | 2800 nM | 14700 nM | 2480 nM | 14900 nM | 5610 nM | 19700 nM | 2080 nM | 11900 nM | 2550 nM | 7860 nM |  | 
C=C1C(=O)O[C@@H]2C[C@@]3(C)CCC[C@H](C)C3=C[C@H]12 |  | 31000 nM |  | 21500 nM |  | 27300 nM |  | 20500 nM |  | 12500 nM |  | 30100 nM |  | 17100 nM |  | 19500 nM |  | 
Oc1ccc2cc(Br)ccc2c1-c1c(O)ccc2cc(Br)ccc12 | 3780 nM | 13100 nM | 3930 nM | 12900 nM | 1760 nM | 4550 nM | 3680 nM | 13100 nM | 2040 nM | 4810 nM | 3920 nM | 15900 nM | 3200 nM | 12100 nM | 3210 nM | 9770 nM |  | 
